Measurements: ChEMBL document CHEMBL1944525, “Synthesis and activity of folate conjugated didemnin B for potential treatment of inflammatory diseases” (Bioorg Med Chem Lett, 2012)
pIC50: −log10 of the molar value.

Tests used:
[1] = system: RAW264.7; assay: Antiinflammatory activity in mouse RAW264.7 cells assessed as inhibition of LPS-induced TNFalpha production after 72 hrs […]; format: functional, cell-based; conditions: RAW264.7, 72 h
[2] = system: RAW264.7; assay: Cytotoxicity against mouse RAW264.7 cells incubated for 5 hrs followed by replacement with fresh media measured after 72 hrs by XTT assay; format: functional, cell-based
[3] = system: RAW264.7; assay: Displacement of [3H]-folic acid from folate receptor on mouse RAW264.7 cells assessed as relative binding after 1 hr by liquid scintillation counting; format: cell-based

Q: How did the pIC50 [1] turn out when CC[C@H](C)[C@H]1NC(=O)[C@@H](NC(=O)[C@@H](CC(C)C)N(C)C(=O)[C@H]2CCCN2C(=O)C(C)OC(=O)OCCSSC[C@H](NC(=O)[C@H](CC(=O)O)NC(=O)[C@H](CC(=O)O)NC(=O)[C@H](CCCNC(=N)N)NC(=O)[C@H](CC(=O)O)NC(=O)CC[C@H](NC(=O)c2ccc(NCc3cnc4nc(N)[nH]c(=O)c4n3)cc2)C(=O)O)C(=O)O)[C@@H](C)OC(=O)[C@H](Cc2ccc(OC)cc2)N(C)C(=O)[C@@H]2CCCN2C(=O)[C@H](CC(C)C)NC(=O)[C@@H](C)C(=O)[C@H](C(C)C)OC(=O)C[C@@H]1O (some centres undefined) [FOLATE DIDEMNIN B] was run?
A: Its pIC50 is 8.30.

Q: And the Activity [2]?
A: Its Activity is “Dose-dependent effect”.

Q: What about the pIC50 [2] of the same compound?
A: Its pIC50 is 7.89.

Q: What about the relative binding affinity (RBA) [3] of the same compound?
A: Its relative binding affinity (RBA) is 0.18.
